Test results: the NIST ThermoML archive (doi:10.1021/je700373r)
± gives the expanded uncertainty stated by the source.

How the values were obtained:
[1] = xn = mol fraction of the nth substance listed; details: Fluid (supercritical or subcritical phases), Vibrating tube method, x2 = 0
[2] = Fluid (supercritical or subcritical phases), Vibrating tube method

O=C=O [carbon dioxide] + CC1=C(/C=C/C(C)=C/C=C/C(C)=C/C=C/C=C(C)/C=C/C=C(C)/C=C/C2=C(C)CCCC2(C)C)C(C)(C)CCC1
mass density [kg/m3], [1]
Details | 10000 kPa | 15000 kPa | 20000 kPa | 30000 kPa | 40000 kPa
308.15 K | 717.2 ± 2.1 | 816.1 ± 1.6 | 866.1 ± 1 | 929 ± 0.8 | 971.7 ± 0.7
313.15 K | 636.6 ± 3.3 | 781.3 ± 2.1 | 840.2 ± 1 | 909.7 ± 0.9 | 955.5 ± 0.8
323.15 K | 397.3 ± 5.2 | 701.8 ± 3.9 | 784.9 ± 1.3 | 870.3 ± 0.9 | 922.8 ± 0.8
333.15 K | 296.1 ± 6.3 | 607 ± 4.4 | 724.4 ± 1.6 | 829.6 ± 1.1 | 889.8 ± 0.9

O=C=O [carbon dioxide]
mass density [kg/m3], [2]
Details | 10000 kPa | 15000 kPa | 20000 kPa | 30000 kPa | 40000 kPa
308.15 K | 717.2 ± 2.1 | 816.1 ± 1.6 | 866.1 ± 1 | 929 ± 0.8 | 971.7 ± 0.7
313.15 K | 636.6 ± 3.3 | 781.3 ± 2.1 | 840.2 ± 1 | 909.7 ± 0.9 | 955.5 ± 0.8
323.15 K | 397.3 ± 5.2 | 701.8 ± 3.9 | 784.9 ± 1.3 | 870.3 ± 0.9 | 922.8 ± 0.8
333.15 K | 296.1 ± 6.3 | 607 ± 4.4 | 724.4 ± 1.6 | 829.6 ± 1.1 | 889.8 ± 0.9
